In paper PMC2783484 (Molecular and biochemical parasitology, 2009):
Like-named read-outs stand apart in the source and are kept apart here.

Key:
PfENT1 [1] = target: T1, PfENT1 (Plasmodium falciparum, UniProt Q8IDM6); experiment: Uptake competition vs [3H]hypoxanthine in PfENT1-expressing Xenopus oocytes; format: cell-based; details: for Ki / competition with uptake of 100 nM [3H]hypoxanthine: 10 min uptake; for Ki: one site fit, Cheng-Prusoff, mean ± SEM; for competition with uptake of 100 nM [3H]hypoxanthine: 2.5 and 10 mM competitor
PfENT1 [2] = target: T1, PfENT1; experiment: Uptake competition vs [3H]adenosine in PfENT1-expressing Xenopus oocytes; format: cell-based
P. falciparum = details: cited from earlier work; for concentration toxic to parasite growth: as sole purine source in culture
PfENT1 [3] = target: T1, PfENT1; experiment: Time course of radiolabeled substrate uptake by PfENT1-expressing oocytes; format: cell-based; details: […] [3H] substrate
PfENT1 [4] = target: T1, PfENT1; details: cited from earlier work
PfHGXPRT = details: read-out: Km for HGXPRT; cited from earlier work
intact parasites = details: read-out: Km for uptake in intact parasites; Quashie et al. (2008); cited from earlier work
[5] = Ki, Competition vs. [3H]hypoxanthine, 100 nM [3H]hypoxanthine
[6] = read-out: PfENT1 Km, Xenopus oocytes, Carter and coworkers
[7] = read-out: PfENT1 transport Km, Xenopus oocytes, Parker et al.

T1 sequence (Q8IDM6 whole entry): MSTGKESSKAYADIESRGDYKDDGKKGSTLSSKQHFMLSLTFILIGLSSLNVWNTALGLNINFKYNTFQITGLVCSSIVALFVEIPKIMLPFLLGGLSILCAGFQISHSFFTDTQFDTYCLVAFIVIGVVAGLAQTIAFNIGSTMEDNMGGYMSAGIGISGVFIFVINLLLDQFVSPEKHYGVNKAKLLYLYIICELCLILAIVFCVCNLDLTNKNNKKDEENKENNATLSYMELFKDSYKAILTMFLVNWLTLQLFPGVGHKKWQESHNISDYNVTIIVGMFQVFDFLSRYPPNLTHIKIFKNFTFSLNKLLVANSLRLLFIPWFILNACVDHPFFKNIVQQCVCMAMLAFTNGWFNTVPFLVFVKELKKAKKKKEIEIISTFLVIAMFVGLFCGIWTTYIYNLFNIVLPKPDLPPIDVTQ

For `Nc1ncnc2c1ccn2[C@@H]1O[C@H](CO)[C@@H](O)[C@H]1O` [Tubercidin, 7-deazaadenosine], the Ki (PfENT1 [1]; [5]) is listed as 420 ± 110 µM, the Ki (PfENT1 [2]) is listed as 590 ± 100 µM and the “IC37, parasite growth inhibition” value (P. falciparum; in vitro culture in RPMI media supplemented with human serum) is listed as 0.4 to 0.7 µM.
For `O=c1[nH]cnc2c([C@@H]3N[C@H](CO)[C@@H](O)[C@H]3O)c[nH]c12` [ImmH, Immucillin-H], the “competition with uptake of 100 nM [3H]hypoxanthine” value (“competition with uptake of 100 nM” for short) (PfENT1 [1]) is given as “failed to compete” and the “inhibition of parasite growth” value (P. falciparum; 10 μM immucillinH in the presence of 10 μM hypoxanthine) is given as “completely inhibited parasite growth”.
For `Nc1ncnc2c1ncn2[C@@H]1O[C@H](CO)[C@@H](O)[C@H]1O` [Adenosine], the “uptake per oocyte at 60 min” value (PfENT1 [3]) is given as roughly 7 pmol, the Km (PfENT1 [4]; [6]) is given as 13 µM and the Km (PfENT1 [4]; read-out: PfENT1 adenosine Km, Downie et al.) is given as 1860 µM. For the same molecule, the Km (PfENT1 [4]; [7]) was 320 µM.
With `Nc1ncnc2c(C3N[C@H](CO)[C@@H](O)[C@H]3O)c[nH]c12` (some centres unmarked) [Immucillin-A] the “competition with uptake of 100 nM” value (PfENT1 [1]) was “failed to compete”.
For `CSC[C@H]1N[C@@H](c2c[nH]c3c(=O)[nH]cnc23)[C@H](O)[C@@H]1O` [MT-ImmH], the “effect on malaria parasites during in vitro culture” value (P. falciparum) is given as “lethal”.
With `NC[C@H]1O[C@@H](n2cc(I)c3c(Cl)ncnc32)[C@H](O)[C@@H]1O` [compound 1, 4-Chloro-5-iodo-7-(5-amino-5-deoxy-β-d-ribofuranosyl)pyrrolo[2,3-d]pyrimidine] the Ki (PfENT1 [1]; [5]) was 3400 µM, the “increase of transport Ki compared to tubercidin” value (PfENT1 [1]; vs [3H]hypoxanthine) was 8 fold and the Ki (PfENT1 [2]) was 1200 ± 300 µM.
For `Nc1nc2nc[nH]c2c(=O)[nH]1` [guanine], the “concentration toxic to parasite growth” value (P. falciparum) is listed as greater than 50 µM and the Km (PfHGXPRT) is listed as 0.3 µM.
In the case of `Nc1nc2c(ncn2[C@@H]2O[C@H](CO)[C@@H](O)[C@H]2O)c(=O)[nH]1` [guanosine], the “concentration toxic to parasite growth” value (P. falciparum) is listed as greater than 50 µM.
In the case of `O=c1[nH]c(=O)c2[nH]cnc2[nH]1` [xanthine], the “concentration toxic to parasite growth” value (P. falciparum) is listed as greater than 50 µM.
Molecule `O=c1[nH]cnc2cc[nH]c12` [9-Deaza-hypoxanthine, 9-Deazahypoxanthine] has a Ki (PfENT1 [1]; [5]) of 710 ± 410 µM and a Ki (PfENT1 [2]) of 940 ± 270 µM.
In the case of `OC[C@H]1O[C@@H](n2cnc3c(O)ncnc32)[C@H](O)[C@@H]1O` [inosine], the Km (PfENT1 [4]; [6]) is listed as 253 µM.
In the case of `O=c1[nH]cnc2nc[nH]c12` [Hypoxanthine], the “block of [3H]hypoxanthine uptake” value (PfENT1 [1]; 2 mM unlabeled hypoxanthine, 100 nM [3H]hypoxanthine) is listed as ~ 90%, the Ki (PfENT1 [1]; [5]) is listed as 300 ± 32 µM and the Km (intact parasites) is listed as 0.34 µM. For the same molecule, the Km (PfENT1 [4]; [7]) was 410 µM and the Km (PfHGXPRT) was 0.46 µM.
With `Nc1ncnc2c1c(I)cn2[C@@H]1O[C@H](CO)[C@@H](O)[C@H]1O` [Iodotubercidin, 5′-iodotubercidin] the Ki (PfENT1 [1]; [5]) was 54 ± 8 µM, the Ki (PfENT1 [2]) was 66 ± 15 µM and the “second site, fold higher apparent affinity” value (PfENT1 [2]; two-site fit vs [3H]adenosine) was 1000 fold.
With `CSC[C@H]1O[C@@H](n2ccc3c(N)ncnc32)[C@H](O)[C@@H]1O` [MT-Tubercidin (10), 5′-methylthiotubercidin] the Ki (PfENT1 [1]; read-out: Ki, Competition vs. [3H]hypoxanthine, 100 nM [3H]hypoxanthine) was 1100 µM.
In the case of `Nc1nc2c([C@@H]3N[C@H](CO)[C@@H](O)[C@H]3O)c[nH]c2c(=O)[nH]1` [Immucillin-G], the “competition with uptake of 100 nM” value (PfENT1 [1]) is reported as “failed to compete”.
For `Nc1ncnc2nc[nH]c12` [adenine], the Km (PfENT1 [4]; [7]) is listed as 320 µM.
